Data: patent US20080125516A1, “Dispersible long-acting mold-proof polyurethanes or urethane adducts and mold-proof materials made thereof” (HEADWAY ADVANCED MATERIALS INC., priority 2006, published 2008)

Test: Solubility in solvents
Assay type: physicochemical

Measured: Solubility

COC(=O)Nc1nc2ccccc2[nH]1 [Unmodified Mold-Proof Agent, methy benzimidazol-2-ylcarbamate]
<0.3%: Dimethylformamide (DMF) | Ethyl acetate (EAC) | Methanol (ME) | Methyl-Ethyl Ketone (MEK) | N,N-dimethylacetamide (DMAC)
